Test results reported in US10508085B2, “Compounds and methods for IDO and TDO modulation, and indications therefor” (Plexxikon Inc., priority 2016, dated 2019).
Like-named read-outs stand apart in the source and are kept apart here.

How the values were obtained:
[1] = target: T1, Human Indoleamine 2,3-dioxygenase (IDO) (Homo sapiens, UniProt P14902); experiment: Human IDO enzymatic assay (kynurenine level); format: biochemical
T1 construct: His tag (N); made in house; host or cells: E. coli
How it was run: (§1)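 Reactions were stopped with TCA, converting N-formylkynurenine to kynurenine for quantitation, with IC50 by nonlinear regression. IDO: 6 nM enzyme, 10 μM L-Trp, 20 min RT. TDO: 1 nM enzyme, 350 μM L-Trp, 70 min RT, both in pH 6.5 buffer.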

[2] = target: T2, Human Tryptophan 2,3-dioxygenase (TDO) (Homo sapiens, UniProt P48775); experiment: Human TDO enzymatic assay (kynurenine level); format: biochemical
T2 construct: His tag (N); made in house; host or cells: E. coli
T2 sequence (P48775 whole entry): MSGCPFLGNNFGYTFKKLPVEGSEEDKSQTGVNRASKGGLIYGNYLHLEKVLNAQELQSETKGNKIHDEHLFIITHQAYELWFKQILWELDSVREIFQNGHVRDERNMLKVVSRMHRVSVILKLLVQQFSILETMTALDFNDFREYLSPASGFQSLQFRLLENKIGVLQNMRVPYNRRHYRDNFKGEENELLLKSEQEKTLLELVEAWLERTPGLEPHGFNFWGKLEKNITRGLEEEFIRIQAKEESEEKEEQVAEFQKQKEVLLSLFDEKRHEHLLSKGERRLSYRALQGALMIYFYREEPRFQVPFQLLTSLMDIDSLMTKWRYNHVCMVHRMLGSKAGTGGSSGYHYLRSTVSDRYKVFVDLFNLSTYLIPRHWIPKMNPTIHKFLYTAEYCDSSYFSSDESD
How it was run: as §1

[3] = target: T3, human IDO (IDO1-expressing HEK293 cells) (Homo sapiens, UniProt P14902); experiment: Cell based kynurenine assay, IDO1-expressing HEK293 cell clones
T3 construct: expressed in transfected cells
T3 sequence (P14902 whole entry): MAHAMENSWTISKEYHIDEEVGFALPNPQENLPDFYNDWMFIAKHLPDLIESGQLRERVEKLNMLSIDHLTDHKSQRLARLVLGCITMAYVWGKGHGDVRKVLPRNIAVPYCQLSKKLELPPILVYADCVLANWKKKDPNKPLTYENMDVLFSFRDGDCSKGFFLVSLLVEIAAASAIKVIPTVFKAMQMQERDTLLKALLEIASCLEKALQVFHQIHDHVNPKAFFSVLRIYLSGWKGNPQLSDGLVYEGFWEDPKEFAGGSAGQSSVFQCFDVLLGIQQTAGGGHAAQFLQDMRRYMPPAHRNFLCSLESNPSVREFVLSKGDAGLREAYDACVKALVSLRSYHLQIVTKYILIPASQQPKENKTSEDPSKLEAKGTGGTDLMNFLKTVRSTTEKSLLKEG
How it was run: (§2)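 Kynurenine in culture supernatant read after 24 h compound exposure of HEK293 cells stably expressing human IDO1 or TDO. IC50 from nonlinear regression of % inhibition relative to 0.2% DMSO cell (high) and media-only (low) controls.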

[4] = target: T4, human TDO (TDO-expressing HEK293 cells) (Homo sapiens, UniProt P48775); experiment: Cell based kynurenine assay, TDO-expressing HEK293 cell clones
T4 construct: expressed in transfected cells
T4 sequence (P48775 whole entry): as the sequence (P48775 whole entry) above
How it was run: as §2

[5] = 6 nM IDO, 10 μM L-Trp, geometric mean, read-out: IDO1 GMean: IC50 (μM) (Biochemical Assay)
[6] = 1 nM TDO, 350 μM L-Trp, geometric mean, read-out: TDO GMean: IC50 (μM) (Biochemical Assay)
[7] = IDO1-expressing HEK293 cells, 24 hours incubation, geometric mean, read-out: HEK293 IDO1 Kynurenine GMean IC50 (μM) (Cellular Assay)
[8] = TDO-expressing HEK293 cells, 24 hours incubation, geometric mean, read-out: HEK293 TDO Kynurenine GMean IC50 (μM) (Cellular Assay)
[9] = IDO1-expressing HEK293 cells, 24 hours, geometric mean, read-out: HEK293 IDO1 Kynurenine GMean IC50 (μM) (Cellular Assay)
[10] = TDO-expressing HEK293 cells, 24 hours, geometric mean, read-out: HEK293 TDO Kynurenine GMean IC50 (μM) (Cellular Assay)

T1 sequence (P14902 whole entry): as the sequence (P14902 whole entry) above

Row | Structure (SMILES) | IC50 [1, 5] | IC50 [2, 6] | IC50 [3, 7] | IC50 [4, 8] | IC50 [3, 9] | IC50 [4, 10] | IC50 ([1]; biochemical assay, comparative examples, 4,6 versus 5,7 indazole, read-out: IDO1) | IC50 ([2]; biochemical assay, comparative examples, 4,6 versus 5,7 indazole, read-out: TDO) | IC50 ([3]; cellular assay, HEK293, 24 hours, comparative examples, read-out: hIDO1) | IC50 ([4]; cellular assay, HEK293, 24 hours, comparative examples, read-out: hTDO)
1 | CC(C)(C1CCN(C(=O)Nc2cc(F)ccc2F)CC1)C(O)c1cc(Cl)cc2cn[nH]c12 (stereo not shown) [Compound P-0404, 4-(1-(5-chloro-1H-indazol-7-yl)-1-hydroxy-2-methylpropan-2-yl)-N-(2,5-difluorophenyl) piperidine-1-carboxamide] | 0.0001 to 10 µM | 0.0001 to 10 µM | 0.0001 to 10 µM | 0.0001 to 10 µM |  |  |  |  |  | 
2 | CC(C)(C)OC(=O)N1CCC(C(F)(F)[C@@H](O)c2cc(Cl)cc3cn[nH]c23)CC1 [Compound P-0517, tert-butyl (S)-4-(2-(5-chloro-1H-indazol-7-yl)-1,1-difluoro-2-hydroxyethyl) piperidine-1-carboxylate] | 0.0001 to 10 µM | > 200 µM |  |  | > 10 µM | > 10 µM |  |  |  | 
3 | CS(=O)(=O)N1C2CCC1CN(c1c(F)c(Cl)cc3cn[nH]c13)C2 [Compound P-0096, 5-chloro-6-fluoro-7-(8-(methylsulfonyl)-3,8-diazabicyclo[3.2.1]octan-3-yl)-1H-indazole] | 0.0001 to 10 µM | 0.0001 to 10 µM | > 10 µM | 0.0001 to 10 µM |  |  |  |  |  | 
4 | COc1cccc(CC(=O)N2CCC(C(F)(F)C(O)c3cc(Cl)cc4cn[nH]c34)CC2)c1 (stereo not shown) [Compound P-0522, 1-(4-(2-(5-chloro-1H-indazol-7-yl)-1,1-difluoro-2-hydroxyethyl)piperidin-1-yl)-2-(3-methoxyphenyl) ethan-1-one] | 0.0001 to 10 µM | 0.0001 to 10 µM |  |  | 0.0001 to 10 µM | 0.0001 to 10 µM |  |  |  | 
5 | OC1(c2c(Cl)c(Cl)cc3cn[nH]c23)CC2(CCC2)C1 [Compound P-0036, 2-(5,6-dichloro-1H-indazol-7-yl)spiro[3.3]heptan-2-ol] | 0.0001 to 10 µM | 0.0001 to 10 µM | 0.0001 to 10 µM | > 10 µM |  |  |  |  |  | 
6 | OC1(c2cc(Cl)cc3cn[nH]c23)CC2(CCOCC2)C1 [drawing 820] |  |  |  |  |  |  | 0.16 µM | 0.22 µM | 0.4 µM | 2.41 µM
7 | CC(C)(C1CCN(C(=O)C2CC2)CC1)C(O)c1c(F)c(Cl)cc2cn[nH]c12 (stereo not shown) [Compound P-0416, (4-(1-(5-chloro-6-fluoro-1H-indazol-7-yl)-1-hydroxy-2-methylpropan-2-yl)piperidin-1-yl)(cyclopropyl) methanone] | 0.0001 to 10 µM | 0.0001 to 10 µM |  |  | 0.0001 to 10 µM | 0.0001 to 10 µM |  |  |  | 
8 | CC(C)(C1CCN(C(=O)c2cccnc2)CC1)[C@H](O)c1cc(Cl)cc2cn[nH]c12 [Compound P-0536, (S)-(4-(1-(5-chloro-1H-indazol-7-yl)-1-hydroxy-2-methylpropan-2-yl)piperidin-1-yl)(pyridin-3-yl)methanone] | 0.0001 to 10 µM | 0.0001 to 10 µM |  |  | 0.0001 to 10 µM | 0.0001 to 10 µM |  |  |  | 
9 | CC(C)(C1CCN(C(=O)CC#N)CC1)C(O)c1cc(Cl)cc2cn[nH]c12 (stereo not shown) [Compound P-0454, 3-(4-(1-(5-chloro-1H-indazol-7-yl)-1-hydroxy-2-methylpropan-2-yl)piperidin-1-yl)-3-oxopropanenitrile] | 0.0001 to 10 µM | 0.0001 to 10 µM |  |  | 0.0001 to 10 µM | 0.0001 to 10 µM |  |  |  | 
10 | CCC(CC)(CC)C(O)c1cc(Cl)cc2cn[nH]c12 (stereo not shown) [Compound P-0267, 1-(5-chloro-1H-indazol-7-yl)-2,2-diethylbutan-1-ol] | 0.0001 to 10 µM | 0.0001 to 10 µM | 0.0001 to 10 µM | 0.0001 to 10 µM |  |  |  |  |  | 
11 | CC(C)(C1CCCC1)C(O)c1cc(Cl)cc2cn[nH]c12 (stereo not shown) [Compound P-0199, 1-(5-chloro-1H-indazol-7-yl)-2-cyclopentyl-2-methylpropan-1-ol] | 0.0001 to 10 µM | 0.0001 to 10 µM | 0.0001 to 10 µM | 0.0001 to 10 µM |  |  |  |  |  | 
12 | O=C(C1CC1)N1CCC(C(F)(F)C(O)c2cc(Cl)cc3cn[nH]c23)CC1 (stereo not shown) [Compound P-0143, (4-(2-(5-chloro-1H-indazol-7-yl)-1,1-difluoro-2-hydroxyethyl)piperidin-1-yl)(cyclopropyl)methanone] | 0.0001 to 10 µM | 0.0001 to 10 µM | 0.0001 to 10 µM | 0.0001 to 10 µM |  |  |  |  |  | 
13 | OC(c1cc(Cl)cc2cn[nH]c12)C1(C(F)F)CCC1 (stereo not shown) [Compound P-0194, (5-chloro-1H-indazol-7-yl)(1-(difluoromethyl)cyclobutyl)methanol] | 0.0001 to 10 µM | 0.0001 to 10 µM | 0.0001 to 10 µM | 0.0001 to 10 µM |  |  |  |  |  | 
